The text below walks through data of publication PMC4871539 (PLoS ONE, 2016).

For data set [1] the following is noted: mouse, in vivo.
Data set [2] concerns E. coli 35218R. Nature of the data set: microbe, parasite or virus in culture. Conditions: Escherichia coli.
The test system of data set [3] is E. coli 35218R. Format: cell-based, Escherichia coli. Conditions: 30-μg cefoxitin disc.
A further data set relates to E. coli ATCC 35218. It counts as cell-based, Escherichia coli. Conditions: 30-μg cefoxitin disc.
The conditions of data set [4]: mouse, in vivo; cited from earlier work.

With piperacillin-tazobactam [Procaps], the “bioequivalence test versus innovator” value in data set [1] is given as “passed”.
As for `CC(C)(O/N=C(\C(=O)N[C@@H]1C(=O)N2C(C(=O)[O-])=C(C[n+]3ccccc3)CS[C@H]12)c1csc(N)n1)C(=O)O` [Ceftazidime], the MIC against E. coli 35218R [2] is no more than 1 µg/mL.
`CO[C@@]1(NC(=O)Cc2cccs2)C(=O)N2C(C(=O)O)=C(COC(N)=O)CS[C@@H]21` [Cefoxitin]: the “inhibition zone (mean ± SD)” value with E. coli 35218R [3] was found to be 27.9 ± 0.1 mm; in the data set on E. coli ATCC 35218, 27.2 ± 0.1 mm. In addition, the MIC with E. coli 35218R [2] was no more than 4 µg/mL.
Turning to `CN[C@H](CC(C)C)C(=O)N[C@H]1C(=O)N[C@@H](CC(N)=O)C(=O)N[C@H]2C(=O)N[C@H]3C(=O)N[C@H](C(=O)N[C@H](C(=O)O)c4cc(O)cc(O)c4-c4cc3ccc4O)[C@H](O)c3ccc(c(Cl)c3)Oc3cc2cc(c3O[C@@H]2O[C@H](CO)[C@@H](O)[C@H](O)[C@H]2O[C@H]2C[C@](C)(N)[C@H](O)[C@H](C)O2)Oc2ccc(cc2Cl)[C@H]1O` [vancomycin], the elimination half-life in data set [4] is roughly 30 min.
As for `CO/N=C(\C(=O)N[C@@H]1C(=O)N2C(C(=O)[O-])=C(C[N+]3(C)CCCC3)CS[C@H]12)c1csc(N)n1` [Cefepime], the MIC in the data set with E. coli 35218R [2] is no more than 1 µg/mL.
For `C[C@H]1[C@H](NC(=O)/C(=N\OC(C)(C)C(=O)O)c2csc(N)n2)C(=O)N1S(=O)(=O)O` [Aztreonam], the MIC in the data set on E. coli 35218R [2] was no more than 1 µg/mL.
Turning to piperacillin-tazobactam [Farmalogica], the “bioequivalence test versus innovator” value in data set [1] is given as “passed”.
For the compound `CO/N=C(\C(=O)N[C@@H]1C(=O)N2C(C(=O)O)=C(CSc3nc(=O)c(=O)[nH]n3C)CS[C@H]12)c1csc(N)n1` [Ceftriaxone], the MIC in the data set with E. coli 35218R [2] is no more than 1 µg/mL.
Compound `C[C@@H](O)[C@H]1C(=O)N2C(C(=O)O)=C(SCCN=CN)C[C@H]12` [Imipenem] gave an MIC in the data set on E. coli 35218R [2] of no more than 1 µg/mL.
With `C[C@@H](O)[C@H]1C(=O)N2C(C(=O)O)=C(S[C@@H]3CN[C@H](C(=O)Nc4cccc(C(=O)O)c4)C3)[C@H](C)[C@H]12` [Ertapenem], in the data set with E. coli 35218R [2], the MIC is no more than 0.5 µg/mL.
Same read-out and setting: the figure for `C[C@@H](O)[C@H]1C(=O)N2C(C(=O)O)=C(S[C@@H]3CN[C@H](C(=O)N(C)C)C3)[C@H](C)[C@H]12` [Meropenem] is no more than 0.25 µg/mL.
